Experimental data from patent publication US20120264942A1, “METHOD FOR SCREENING OSTEOPONTIN INHIBITOR AND INHIBITOR OBTAINED FROM THE METHOD” (INNOPHARMASCREEN, INC., priority 2009, published 2012).

Tests used:
mouse skull calvaria = assay: Mouse Calvaria Model, LPS-induced born destruction; format: in vivo; conditions: Lipopolysaccharide 10 mg/kg to mouse skull; compound 10 mg/kg
Method: […] On 5 days, the mice calvaria were extracted; the cross-section of the calvaria was stained with H&E Staining to identify; and then the inhibition degree of the born destruction effect was analyzed using Image-pro Plus 4.5 (Media Cybernetics, Inc.).

mouse osteoclast = assay: Osteoclast differentiation inhibition, mouse osteoclast with M-CSF and RANKL (Example 5); format: cell-based; conditions: M-CSF 30 ng/ml, RANKL 200 ng/ml
Method: For FIG. 6, the mouse osteoclast (2×10^4/well) was added to 48 well plate; M-CSF (30 ng/ml) and RANKL (200 ng/ml) were added at the same time; and then 10 mM of each of C01, CO2, and G10 that are an osteopontin inhibitor was treated to analysis the inhibition ability for differentiating to an osteoclast.

osteoclast = assay: Osteoclast differentiation inhibition, myeloplast-derived macrophage with hM-CSF and RANKL, TRAP staining (Example 4); format: cell-based, mice (C57BL/6J); conditions: 10 mM; 30 ng/ml hM-CSF, 100 ng/ml RANKL; 4 days
Method: Myeloplasts collected from five-week mice (C57BL/6J) were added to 48-well plate and cultured in a differentiation medium [a-MEM (Invitrogen. co.), 10% (v/v) Fetal bovine serum (FBS), 100 units/ml penicillin, 100 μg/ml streptomycin] including 30 ng/ml of hM-CSF (R&D system Inc.) that is a macrophage differentiator for three days under the conditions of 37° C., 95% (v/v) air, and 5% (v/v) CO2 to be 4×10^4 cell/well so that the macrophase derived from the myeloplast was obtained. In this situation, in addition to the concentration of 30 ng/ml hM-CSF, mouse RANKL that is an osteoclast differentiator was expressed in E. coli; it was purely separated and purified; it was added in the concentration of 100 ng/ml; and then it was continuously cultured under the same conditions to induce the cell differentiation to the osteoclast. After culturing for 4 days, the cell was fixed with 3.7% formaldehyde for 15 minutes at room temperature; washed with distilled water twice; the staining solution made by mixing acetate, Fast Gargnet GBC base, naphtol AS-BI phosphate, […], and tartrate in the ratio as disclosed in the instructions of Acid Phosphatase, Leukocyte (TRAP) Kit™ (Sigma Co.) was added to be […]; and then reacted at 37° C. for 20 minutes to stain the differentiated osteoclast.

SMILES | effect on inhibiting the born destruction effect due to LPS in vivo (mouse skull calvaria) | inhibition ability for differentiating to the osteoclast (mouse osteoclast) | inhibition ability for differentiating to the osteoclast (osteoclast)
O=C1C(O)=C(O)C(=O)c2c(O)c(Cl)c(Cl)c(O)c21 [IPS-02001, 6,7-Dichloro-2,3,5,8-tetrahydroxy-[1,4]naphthoquinone] | has the effect on inhibiting the born destruction effect | excellent inhibition ability | excellent inhibition ability
O=C1C(O)=C(O)C(=O)c2c(O)c(Cl)cc(O)c21 [IPS-02002, 6-Chloro-2,3,5,8-tetrahydroxy-[1,4]naphthoquinon] |  | excellent inhibition ability | excellent inhibition ability
O=C(O)C1CSC(c2ccccn2)N1 (stereo not shown) [IPS-02003, 2-Pyridin-2-yl-thiazolidine-4-carboxylic acid] |  | no inhibition ability | no inhibition ability
